In the supplement of paper PMC7645387:

Assays:
Assay in all cases: growth inhibition relative to DMSO control (fraction); higher = stronger growth inhibition
Settings in all cases: treatment time: 6 days
HDFB = system: HDFB
Protocol: (§1)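 Drug combination matrices: GSK-LSD1 (0, 1, 10, 100 nM) was combined with a second epigenetic drug (0 to 10 uM) on MCC lines PeTa and MKL-1 and on HDFB fibroblasts for 6 days, in quadruplicate. Viability was read by CellTiter-Glo 2.0. The response is the fraction of growth inhibition relative to DMSO, as input to synergyfinder Bliss analysis.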

MKL-1 = system: MKL-1
Protocol: as §1

PeTa = system: PeTa
Protocol: as §1

c1ccc([C@@H]2C[C@H]2NC2CCNCC2)cc1 [GSK-LSD1] + CCOC(=O)NCCCC(=O)NCCc1ccccc1 [Santacruzamate A]
growth inhibition
Settings	partner concentration 0 nM	partner concentration 1 nM	partner concentration 10 nM	partner concentration 100 nM	partner concentration 1000 nM	partner concentration 10000 nM
HDFB, GSK-LSD1 concentration 0 nM	–	0.0152	0.0273	-0.00476	0.025	-0.0257
HDFB, GSK-LSD1 concentration 1 nM	0.0274	0.0683	0.0641	0.0608	0.0549	0.0385
HDFB, GSK-LSD1 concentration 10 nM	0.103	0.132	0.111	0.109	0.0931	0.0944
HDFB, GSK-LSD1 concentration 100 nM	0.209	0.215	0.245	0.258	0.258	0.248
MKL-1, GSK-LSD1 concentration 0 nM	–	0.00478	-0.00416	-0.0025	-0.0148	-0.0477
MKL-1, GSK-LSD1 concentration 1 nM	0.0491	0.0627	0.0768	0.068	0.072	0.014
MKL-1, GSK-LSD1 concentration 10 nM	0.266	0.253	0.298	0.281	0.242	0.184
MKL-1, GSK-LSD1 concentration 100 nM	0.748	0.763	0.741	0.763	0.696	0.755
PeTa, GSK-LSD1 concentration 0 nM	–	-0.00232	0.00932	0.0171	-0.000556	-0.0248
PeTa, GSK-LSD1 concentration 1 nM	0.0188	0.0434	0.0394	0.0494	0.0221	-0.00432
PeTa, GSK-LSD1 concentration 10 nM	0.412	0.412	0.418	0.432	0.466	0.403
PeTa, GSK-LSD1 concentration 100 nM	0.786	0.751	0.762	0.748	0.793	0.814

c1ccc([C@@H]2C[C@H]2NC2CCNCC2)cc1 [GSK-LSD1] + CN1CCN(c2ccc(-c3cccc(CN4CCOCC4)c3)cc2NC(=O)c2c[nH]c(=O)cc2C(F)(F)F)CC1 [OICR9429]
growth inhibition
Settings	partner concentration 0 nM	partner concentration 1 nM	partner concentration 10 nM	partner concentration 100 nM	partner concentration 1000 nM	partner concentration 10000 nM
HDFB, GSK-LSD1 concentration 0 nM	–	-0.0114	0.00661	-0.0286	0.11	0.593
HDFB, GSK-LSD1 concentration 1 nM	0.0144	0.0294	0.0019	0.0389	0.171	0.68
HDFB, GSK-LSD1 concentration 10 nM	0.091	0.0858	0.0542	0.0911	0.22	0.651
HDFB, GSK-LSD1 concentration 100 nM	0.149	0.113	0.145	0.139	0.282	0.676
MKL-1, GSK-LSD1 concentration 0 nM	–	-0.0407	-0.0602	-0.0599	-0.0444	-0.00949
MKL-1, GSK-LSD1 concentration 1 nM	0.0584	0.0967	0.0719	0.0573	0.0606	0.0783
MKL-1, GSK-LSD1 concentration 10 nM	0.357	0.381	0.381	0.355	0.398	0.438
MKL-1, GSK-LSD1 concentration 100 nM	0.717	0.695	0.709	0.735	0.775	0.797
PeTa, GSK-LSD1 concentration 0 nM	–	-0.0155	-0.0439	-0.00944	0.0255	0.143
PeTa, GSK-LSD1 concentration 1 nM	-0.0127	-0.0233	-0.0546	-0.0748	0.0274	0.0895
PeTa, GSK-LSD1 concentration 10 nM	0.451	0.456	0.365	0.381	0.437	0.509
PeTa, GSK-LSD1 concentration 100 nM	0.808	0.808	0.787	0.806	0.827	0.863

c1ccc([C@@H]2C[C@H]2NC2CCNCC2)cc1 [GSK-LSD1] + Cc1cc2c(cc1N1C(=O)c3cccc4c(CCCO)ccc(c34)C1=O)n(C)c(=O)n2C [BAY299]
growth inhibition
Settings	partner concentration 0 nM	partner concentration 1 nM	partner concentration 10 nM	partner concentration 100 nM	partner concentration 1000 nM	partner concentration 10000 nM
HDFB, GSK-LSD1 concentration 0 nM	–	-0.0107	-0.0132	0.0763	0.607	0.697
HDFB, GSK-LSD1 concentration 1 nM	-0.0232	-0.0193	0.0121	0.0867	0.635	0.702
HDFB, GSK-LSD1 concentration 10 nM	0.076	0.0719	0.0472	0.207	0.674	0.727
HDFB, GSK-LSD1 concentration 100 nM	0.0758	0.0715	0.0856	0.201	0.695	0.713
MKL-1, GSK-LSD1 concentration 0 nM	–	0.0343	-0.000673	0.0416	0.844	0.999
MKL-1, GSK-LSD1 concentration 1 nM	0.104	0.0952	0.0872	0.0914	0.936	0.999
MKL-1, GSK-LSD1 concentration 10 nM	0.516	0.425	0.457	0.475	0.972	1
MKL-1, GSK-LSD1 concentration 100 nM	0.753	0.738	0.69	0.722	0.981	1
PeTa, GSK-LSD1 concentration 0 nM	–	-0.0148	-0.062	0.00688	0.806	0.998
PeTa, GSK-LSD1 concentration 1 nM	-0.0592	-0.0708	-0.0758	0.0174	0.764	0.997
PeTa, GSK-LSD1 concentration 10 nM	0.258	0.223	0.194	0.304	0.836	0.999
PeTa, GSK-LSD1 concentration 100 nM	0.749	0.743	0.723	0.736	0.989	0.999
